Consider eleven compounds from patent publication US20200069648A1, “HALOALLYLAMINE PYRAZOLE DERIVATIVE INHIBITORS OF LYSYL OXIDASES AND USES THEREOF” (Pharmaxis Ltd., priority 2017, published 2020).

A word on the IC50: it is the concentration at which inhibition is half-maximal.

Where a name gives a salt, the structure may show the parent alone.

One assay addresses T1, Bovine LOX (Bos taurus, UniProt P33072).
T1 sequence (P33072 170-418): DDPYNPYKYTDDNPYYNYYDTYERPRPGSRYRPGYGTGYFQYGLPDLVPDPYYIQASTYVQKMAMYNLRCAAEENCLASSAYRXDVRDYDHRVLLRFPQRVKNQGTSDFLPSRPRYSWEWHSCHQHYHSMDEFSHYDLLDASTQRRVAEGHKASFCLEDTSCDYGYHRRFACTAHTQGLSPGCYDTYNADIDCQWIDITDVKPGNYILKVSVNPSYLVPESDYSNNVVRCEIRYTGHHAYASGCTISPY
Briefly: LOX amine oxidase inhibition, peroxidase-coupled Amplex Red assay. It is filed as biochemical. The conditions noted are these: 30 min preincubation at 37° C., putrescine substrate. Put shortly:
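Bovine LOX in 1.2 M urea, 50 mM sodium borate pH 8.2 […]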

Assay [1] has as its target T2, human recombinant SSAO/VAP-1 (Homo sapiens, UniProt Q16853).
T2 construct: a cloned cDNA template corresponding to residues 34-763 of human SSAO/VAP-1; TEV cleavage site (N); made in house
T2 sequence (Q16853 34-763): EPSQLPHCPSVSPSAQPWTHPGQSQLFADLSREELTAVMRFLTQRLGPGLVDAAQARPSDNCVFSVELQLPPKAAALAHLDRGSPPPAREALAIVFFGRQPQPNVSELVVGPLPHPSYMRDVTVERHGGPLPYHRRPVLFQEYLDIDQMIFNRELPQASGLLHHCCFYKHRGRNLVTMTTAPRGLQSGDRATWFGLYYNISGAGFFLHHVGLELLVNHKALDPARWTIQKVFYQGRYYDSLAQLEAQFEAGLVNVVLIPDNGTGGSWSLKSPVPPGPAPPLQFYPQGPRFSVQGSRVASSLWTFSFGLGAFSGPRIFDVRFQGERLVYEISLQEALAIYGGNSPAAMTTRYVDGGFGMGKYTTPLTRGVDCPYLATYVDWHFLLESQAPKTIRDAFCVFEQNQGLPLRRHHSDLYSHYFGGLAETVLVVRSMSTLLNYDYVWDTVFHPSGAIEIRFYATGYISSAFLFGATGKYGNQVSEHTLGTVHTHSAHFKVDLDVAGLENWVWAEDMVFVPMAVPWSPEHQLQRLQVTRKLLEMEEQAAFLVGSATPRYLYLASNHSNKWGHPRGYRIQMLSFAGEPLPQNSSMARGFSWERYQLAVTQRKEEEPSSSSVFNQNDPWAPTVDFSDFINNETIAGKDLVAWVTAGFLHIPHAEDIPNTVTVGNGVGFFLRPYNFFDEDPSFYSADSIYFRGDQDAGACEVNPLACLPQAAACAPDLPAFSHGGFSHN
Nature of the assay: Human recombinant SSAO/VAP-1 amine oxidase inhibition. It counts as biochemical. The conditions noted are these: 30 min preincubation at 37° C., 600 μM benzylamine. How it is done: Method to Determine the Ability of Compounds of Formula I to Inhibit Human Recombinant SSAO/VAP-1
Human recombinant SSAO/VAP-1 amine oxidase activity was determined using the coupled colorimetric method as described for monoamine oxidase, copper-containing amine oxidases and related enzymes (Holt A. and Palcic M., A peroxidase-coupled continuous absorbance plate-reader assay for flavin monoamine oxidases, copper-containing amine oxidases and related enzymes. Nat Protoc 2006; 1: 2498-2505). Briefly, a cloned cDNA template corresponding to residues 34-763 of human SSAO/VAP-1, and incorporating a mouse Ig kappa (κ) signal sequence, N-terminal flag epitope tag and tobacco etch virus (TEV) cleavage site, was assembled in a mammalian expression vector (pLO-CMV) by Geneart AG. This vector containing human SSAO/VAP-1 residues was transfected into CHO-K1 glycosylation mutant cell line, Lec 8. A clone stably expressing human SSAO/VAP-1 was isolated and cultured in large scale. Active human SSAO/VAP-I was purified and recovered using immunoaffinity chromatography. This was used as the source for SSAO/VAP-1 activity. A high-throughput colorimetric assay was developed using either 96 or 384 well format. Briefly, in a standard 96 well plate assay 50 μL of purified human SSAO/VAP-1 (0.25 μg/mL) in 0.1 M sodium phosphate buffer (pH 7.4) was added into each well. Test compounds were dissolved in DMSO and tested in a Concentration Response Curve (CRC) with 4-11 data points, typically in the micromolar or nanomolar range after incubation with human SSAO/VAP-1 for 30 min at 37° C. After 30 min incubation, 50 μL of the reaction mixture containing 600 μM benzylamine (Sigma Aldrich), 120 μM Amplex Red (Sigma Aldrich) and 1.5 U/mL horseradish peroxidase (Sigma Aldrich) prepared in 0.1 M sodium phosphate buffer (pH 7.4) were added to the corresponding well. The fluorescence unit (RFU) was read every 2.5 min for 30 min at 37° C. excitation 565 nm and emission 590 (Optima; BMG labtech). The slope of the kinetics for each well was calculated using MARS data analysis software (BMG labtech) and this value was used to deduce the IC50 value (Dotmatics).

As to `Cc1nn(C/C(F)=C/CN)c(C(C)O)c1Cc1ccc(S(=O)(=O)N(C)C)c(Cl)c1` (single isomer, unassigned) [Compound 52, (Z)-4-((1-(4-amino-2-fluorobut-2-en-1-yl)-5-(1-hydroxyethyl)-3-methyl-1H-pyrazol-4-yl)methyl)-2-chloro-N,N-dimethylbenzenesulfonamide hydrochloride], the values for the IC50 (at Bovine LOX; in assay [1]) were over 10 µM and over 30 µM, respectively.
The corresponding values for `Cc1nn(C/C(F)=C/CN)c(C(C)O)c1Cc1ccc(S(=O)(=O)N(C)C)c(Cl)c1` (single isomer, unassigned) [Compound 53, (Z)-4-((1-(4-amino-2-fluorobut-2-en-1-yl)-5-(1-hydroxyethyl)-3-methyl-1H-pyrazol-4-yl)methyl)-2-chloro-N,N-dimethylbenzenesulfonamide hydrochloride] are over 10 µM and over 30 µM.
Take `N#CCCN` [BAPN, β-aminopropionitrile, reference compound]: the IC50 against Bovine LOX is under 1 µM; in assay [1], over 100 µM.
For the compound `CN(C)S(=O)(=O)c1ccc(-c2cnn(C/C(F)=C/CN)c2)cc1` [Compound 1, (Z)-4-(1-(4-amino-2-fluorobut-2-en-1-yl)-1H-pyrazol-4-yl)-N,N-dimethyl benzenesulfonamide hydrochloride], the IC50 (against Bovine LOX; in assay [1]) was under 10 µM each time.
For `Cc1nn(C/C(F)=C/CN)c(C)c1Cc1ccc(S(=O)(=O)N(C)C)cc1` [Compound 2, (Z)-4-((1-(4-amino-2-fluorobut-2-en-1-yl)-3,5-dimethyl-1H-pyrazol-4-yl)methyl)-N,N-dimethylbenzenesulfonamide hydrochloride], the IC50 was under 10 µM at Bovine LOX and over 30 µM in assay [1].
The corresponding values for `Cc1nn(C/C(F)=C/CN)c(C)c1Cc1ccc(S(=O)(=O)N(C)C)cc1Cl` [Compound 3, (Z)-4-((1-(4-amino-2-fluorobut-2-en-1-yl)-3,5-dimethyl-1H-pyrazol-4-yl)methyl)-3-chloro-N,N-dimethylbenzenesulfonamide hydrochloride] are under 10 µM and over 30 µM.
The corresponding values for `Cc1nn(C/C(F)=C/CN)c(C)c1Cc1ccc(S(C)(=O)=O)cc1` [Compound 4, (Z)-4-(3,5-dimethyl-4-(4-(methylsulfonyl)benzyl)-1H-pyrazol-1-yl)-3-fluorobut-2-en-1-amine hydrochloride] are under 10 µM and over 30 µM.
The corresponding values for `Cc1nn(C/C(F)=C/CN)c(C)c1Cc1cccc(S(=O)(=O)N(C)C)c1` [Compound 5, (Z)-3-((1-(4-amino-2-fluorobut-2-en-1-yl)-3,5-dimethyl-1H-pyrazol-4-yl)methyl)-N,N-dimethyl benzenesulfonamide hydrochloride] are over 10 µM and over 30 µM.
Take `Cc1nn(C/C(F)=C/CN)c(C)c1Cc1ccc(S(=O)(=O)N2CCOCC2)cc1` [Compound 6, (Z)-4-(3,5-dimethyl-4-(4-(morpholinosulfonyl)benzyl)-1H-pyrazol-1-yl)-3-fluorobut-2-en-1-amine hydrochloride]: the results for the 50% inhibitory concentration (IC50) (against Bovine LOX; in assay [1]) were under 10 µM and over 30 µM, respectively.
The corresponding values for `Cc1nn(C/C(F)=C/CN)c(C)c1Cc1ccc(S(=O)(=O)N2CCCC2)cc1` [Compound 7, (Z)-4-(3,5-dimethyl-4-(4-(pyrrolidin-1-ylsulfonyl)benzyl)-1H-pyrazol-1-yl)-3-fluorobut-2-en-1-amine hydrochloride] are under 10 µM and over 10 µM.
For the compound `Cc1nn(C/C(F)=C/CN)c(C)c1Cc1ccc(S(=O)(=O)N(C)C(C)C)cc1` [Compound 8, (Z)-4-((1-(4-amino-2-fluorobut-2-en-1-yl)-3,5-dimethyl-1H-pyrazol-4-yl)methyl)-N-isopropyl-N-methylbenzenesulfonamide hydrochloride], the values for the IC50 (on Bovine LOX; in assay [1]) were under 10 µM and over 10 µM, respectively.
